# In patent publication US20140263071A1, “METHOD FOR COLLECTING METALS” (CHEMEC OY AB, priority 2011, published 2014):
# Marks after values point to notes of the source that are not given here.
# How the values were obtained:
# [1] = Effect of temperature on expulsion percent, Pb^2+ spiked TS 5, 1a 1.0 g/100 ml, 24 h (Example 12)
# Procedure: A test solution containing 1-15 mg/l of Al^3+, Fe^2/3+, Mg^2+, Mn^2+, Ni^2+ and Zn^2+; 0.1-0.9 mg/l of Ca^2+ and Na^+; and trace amount of other Cr^3+, Co^2+, Cu^2+, Eu^3+, La^3+, Nd^3+, Y^3+, UO2^2+ and Nb^5+ cations were prepared.
# Effect of temperature to selected metal expulsion per cents was tested using TS 5 with comlexation agent 1a. TS 5 (100 ml), spiked with known amounts of lead (Pb^2+) cations, was stirred with 1a (1.0 g) at selected temperature for 24 h followed by separation of 1a by filtration trough 0.2 μm syringe filter. Metal concentrations at 4° C., 7° C., 22° C., 30° C., 40° C. and 50° C. were determined by using ICP-AES analysis.
# [2] = Maximum expulsion percent of single metal cations from water solution (Example 8)
# Procedure: A water solution (110 ml) containing known amount of single cationic element or elements, typically 0.5-200 ppm, was prepared from Merch Titrisol® standard solution. After adjusting pH by using acid (e.g. HCl or HNO3) or base (e.g. NaOH) to desired initial value, sample A (10 ml) was taken followed by adding 100 mg of selected solid complexation agent. The mixture was stirred at room temperature for 24 h and sample B (10 ml) was taken. Samples A and B were filtrated separately trough 0.2 μm syringe filter and the concentration of the studied element or elements in both solution was determined by using atomic absorption spectrophotometer. The expulsion percent was determined from the concentration differences between the sample solutions A and B.
# The maximum expulsion percent and pH value in which the value was achieved was determined for each single cationic element using the general procedure mentioned above.
# [3] = Purification of waste water containing heavy metals, TS 2 (Example 17)
# Procedure: Waste water sample from dumping site containing some heavy metals: ca. 2 g/l of Ca^2+; […] of As^3+ (or As^5+), Cr^3+, Fe^2/3+, Pb^2+, Sr^2+, Zn^2+ and Hg^2+; pH 3.56.
# TS 2 (100 ml), which initial metal cation concentrations were determined by AAS and ICP-AES methods, was treated with 1a (1.0 g) with stirring for 24 h. After filtration trough 0.2 μm syringe filter metal concentrations in solution were determined.
smiles,measurement,setting,value
"NCCCCCCCCCCC(O)(P(=O)(O)O)P(=O)(O)O [Compound 1a, 11-Amino-1-hydroxyundecane-1,1-diyldiphosphonic acid]",Expulsion [%],"[1]; Al^3+, 4° C.",6.3%
same,Expulsion [%],"[1]; Al^3+, 7° C.",15.4%
same,Expulsion [%],"[1]; Al^3+, 22° C.",18.5%
same,Expulsion [%],"[1]; Al^3+, 30° C.",14.6%
same,Expulsion [%],"[1]; Al^3+, 40° C.",98.0%
same,Expulsion [%],"[1]; Al^3+, 50° C.",97.6%
same,Expulsion [%],"[1]; Ca^2+, 4° C.",0.0%
same,Expulsion [%],"[1]; Ca^2+, 7° C.",0.0%
same,Expulsion [%],"[1]; Ca^2+, 22° C.",9.4%
same,Expulsion [%],"[1]; Ca^2+, 30° C.",10.0%
same,Expulsion [%],"[1]; Ca^2+, 40° C.",63.5%
same,Expulsion [%],"[1]; Ca^2+, 50° C.",71.2%
same,Expulsion [%],"[1]; Cd^2+, 4° C.",16.1%
same,Expulsion [%],"[1]; Cd^2+, 7° C.",18.3%
same,Expulsion [%],"[1]; Cd^2+, 22° C.",34.5%
same,Expulsion [%],"[1]; Cd^2+, 30° C.",41.3%
same,Expulsion [%],"[1]; Cd^2+, 40° C.",99.0%
same,Expulsion [%],"[1]; Cd^2+, 50° C.",98.9%
same,Expulsion [%],"[1]; Fe^2/3+, 4° C.",0.0%
same,Expulsion [%],"[1]; Fe^2/3+, 7° C.",0.7%
same,Expulsion [%],"[1]; Fe^2/3+, 22° C.",5.2%
same,Expulsion [%],"[1]; Fe^2/3+, 30° C.",4.4%
same,Expulsion [%],"[1]; Fe^2/3+, 40° C.",99.3%
same,Expulsion [%],"[1]; Fe^2/3+, 50° C.",≥ 99.3^1%
same,Expulsion [%],"[1]; Mg^2+, 4° C.",0.7%
same,Expulsion [%],"[1]; Mg^2+, 7° C.",0.7%
same,Expulsion [%],"[1]; Mg^2+, 22° C.",7.1%
same,Expulsion [%],"[1]; Mg^2+, 30° C.",5.5%
same,Expulsion [%],"[1]; Mg^2+, 40° C.",≥ 97.7^1%
same,Expulsion [%],"[1]; Mg^2+, 50° C.",≥ 97.7^1%
same,Expulsion [%],"[1]; Mn^2+, 4° C.",4.6%
same,Expulsion [%],"[1]; Mn^2+, 7° C.",5.3%
same,Expulsion [%],"[1]; Mn^2+, 22° C.",14.7%
same,Expulsion [%],"[1]; Mn^2+, 30° C.",13.3%
same,Expulsion [%],"[1]; Mn^2+, 40° C.",≥ 99.7^1%
same,Expulsion [%],"[1]; Mn^2+, 50° C.",≥ 99.7^1%
same,Expulsion [%],"[1]; Ni^2+, 4° C.",0.9%
same,Expulsion [%],"[1]; Ni^2+, 7° C.",1.4%
same,Expulsion [%],"[1]; Ni^2+, 22° C.",4.6%
same,Expulsion [%],"[1]; Ni^2+, 30° C.",4.6%
same,Expulsion [%],"[1]; Ni^2+, 40° C.",97.1%
same,Expulsion [%],"[1]; Ni^2+, 50° C.",95.2%
same,Expulsion [%],"[1]; Pb^2+, 4° C.",≥ 98.1^1%
same,Expulsion [%],"[1]; Pb^2+, 7° C.",≥ 98.1^1%
same,Expulsion [%],"[1]; Pb^2+, 22° C.",≥ 98.1^1%
same,Expulsion [%],"[1]; Pb^2+, 30° C.",≥ 98.1^1%
same,Expulsion [%],"[1]; Pb^2+, 40° C.",≥ 98.1^1%
same,Expulsion [%],"[1]; Pb^2+, 50° C.",≥ 98.1^1%
same,Expulsion [%],"[1]; Zn^2+, 4° C.",9.0%
same,Expulsion [%],"[1]; Zn^2+, 7° C.",10.4%
same,Expulsion [%],"[1]; Zn^2+, 22° C.",22.9%
same,Expulsion [%],"[1]; Zn^2+, 30° C.",25.7%
same,Expulsion [%],"[1]; Zn^2+, 40° C.",97.6%
same,Expulsion [%],"[1]; Zn^2+, 50° C.",98.0%
same,Expulsion-% (maximum),"[2]; Ag^+, pH 2.0, initial 1 ppm",100%
same,Expulsion-% (maximum),"[2]; Al^3+, pH 2.1, initial 10 ppm",96.9%
same,Expulsion-% (maximum),"[2]; Au^3+, pH 0.5, initial 1 ppm",63.3%
same,Expulsion-% (maximum),"[2]; Ba^2+, pH 3.0, initial 10 ppm",90.2%
same,Expulsion-% (maximum),"[2]; Bi^3+, pH 3.0, initial 10 ppm",100%
same,Expulsion-% (maximum),"[2]; Ca^2+, pH 2.6, initial 2 ppm",69.9%
same,Expulsion-% (maximum),"[2]; Cd^2+, pH 3.6, initial 0.5 ppm",97.3%
same,Expulsion-% (maximum),"[2]; Co^2+, pH 3.4, initial 1 ppm",85.0%
same,Expulsion-% (maximum),"[2]; Cr^3+, pH 3.1, initial 2 ppm",97.2%
same,Expulsion-% (maximum),"[2]; Cr^6+, pH 6.6, initial 2 ppm",0%
same,Expulsion-% (maximum),"[2]; Cu^2+, pH 3.5, initial 2 ppm",95.7%
same,Expulsion-% (maximum),"[2]; Cu^+, pH 2.4, initial 2 ppm",85.3%
same,Expulsion-% (maximum),"[2]; Eu^3+, pH 4.0, initial 5 ppm",85.3%
same,Expulsion-% (maximum),"[2]; Fe^2+, pH 6.5, initial 1 ppm",93.0%
same,Expulsion-% (maximum),"[2]; Fe^3+, pH 3.1, initial 1 ppm",98.9%
same,Expulsion-% (maximum),"[2]; Ga^3+, pH 0.5, initial 50 ppm",1.0%
same,Expulsion-% (maximum),"[2]; Gd^3+, pH 1.5, initial 100 ppm",0%
same,Expulsion-% (maximum),"[2]; Hg^2+, pH 5.0, initial 0.1 ppm",93.0%
same,Expulsion-% (maximum),"[2]; Hg^+, pH 3.0, initial 1 ppm",89.4%
same,Expulsion-% (maximum),"[2]; In^3+, pH 2.1, initial 20 ppm",73.4%
same,Expulsion-% (maximum),"[2]; Ir^3+, pH 0.6, initial 100 ppm",66.1%
same,Expulsion-% (maximum),"[2]; K^+, pH 4.2, initial 1 ppm",0%
same,Expulsion-% (maximum),"[2]; La^3+, pH 3.0, initial 100 ppm",54.1%
same,Expulsion-% (maximum),"[2]; Li^+, pH 3.9, initial 0.5 ppm",4.8%
same,Expulsion-% (maximum),"[2]; Mg^2+, pH 2.9, initial 0.5 ppm",64.3%
same,Expulsion-% (maximum),"[2]; Mn^2+, pH 3.4, initial 1 ppm",93.8%
same,Expulsion-% (maximum),"[2]; Mo^6+, pH 8.9, initial 10 ppm",80.8%
same,Expulsion-% (maximum),"[2]; Na^+, pH 3.9, initial 0.5 ppm",0%
same,Expulsion-% (maximum),"[2]; Nb^5+, pH 8.5, initial 100 ppm",100%
same,Expulsion-% (maximum),"[2]; Nd^3+, pH 4.1, initial 100 ppm",98.1%
same,Expulsion-% (maximum),"[2]; Ni^2+, pH 3.3, initial 1 ppm",78.6%
same,Expulsion-% (maximum),"[2]; Os^4+, pH 0.5, initial 100 ppm",85.8%
same,Expulsion-% (maximum),"[2]; Pb^2+, pH 3.2, initial 5 ppm",99.6%
same,Expulsion-% (maximum),"[2]; Pd^2+, pH 8.0, initial 5 ppm",77.8%
same,Expulsion-% (maximum),"[2]; Pt^2+, pH 0.5, initial 25 ppm",70.0%
same,Expulsion-% (maximum),"[2]; Rh^3+, pH 4.0, initial 10 ppm",77.7%
same,Expulsion-% (maximum),"[2]; Ru^3+, pH 2.0, initial 10 ppm",48.5%
same,Expulsion-% (maximum),"[2]; Sb^3+, pH 3.0, initial 10 ppm",100%
same,Expulsion-% (maximum),"[2]; Sc^3+, pH 2.0, initial 5 ppm",100%
same,Expulsion-% (maximum),"[2]; Si^4+, pH 1.0, initial 50 ppm",1.3%
same,Expulsion-% (maximum),"[2]; Sn^2+, pH 7.0, initial 50 ppm",98.1%
same,Expulsion-% (maximum),"[2]; Sn^4+, pH 10.3, initial 200 ppm",100%
same,Expulsion-% (maximum),"[2]; Sr^2+, pH 5.0, initial 2 ppm",93.2%
same,Expulsion-% (maximum),"[2]; Ti^4+, pH 9.8, initial 50 ppm",48.8%
same,Expulsion-% (maximum),"[2]; U^6+, pH 3.4, initial 2.5 ppm",87.6%
same,Expulsion-% (maximum),"[2]; V^4+, pH 0.5, initial 100 ppm",69.3%
same,Expulsion-% (maximum),"[2]; W^6+, pH 1.6, initial 50 ppm",12.0%
same,Expulsion-% (maximum),"[2]; Y^3+, pH 2.1, initial 25 ppm",89.1%
same,Expulsion-% (maximum),"[2]; Zn^2+, pH 3.7, initial 0.5 ppm",94.7%
same,Expulsion-% (maximum),"[2]; Zr^4+, pH 0.5, initial 100 ppm",81.5%
same,Expulsion [%],[3]; As^3/5+,≥ 61.7^2) %
same,Expulsion [%],[3]; Ca^2+,75.4%
same,Expulsion [%],[3]; Cd^2+,≥ 89.4^5) %
same,Expulsion [%],[3]; Cr^3+,23.9%
same,Expulsion [%],[3]; Fe^2/3+,22.8%
same,Expulsion [%],[3]; Hg^1/2+ (CVAAS),99.0^1) %
same,Expulsion [%],[3]; Pb^2+,≥ 68.9^5) %
same,Expulsion [%],[3]; Sr^2+,84.3%
same,Expulsion [%],[3]; Zn^2+,76.8%
